One test addresses ErbB2 V777L (Homo sapiens (Human), UniProt P04626, V777L). Nature of the test: ErbB enzyme assay (CisBio HTRF-KinEASE-TK), ErbB2 V777L. It counts as biochemical. Here is the method:
In vitro enzyme assays based on CisBio HTRF-KinEASE-TK technology were used to determine compound potencies. […] After another 1 h incubation at ambient temperature, the extent of substrate phosphorylation was determined using a PerkinElmer EnVision multimode plate reader via time-resolved fluorescence dual wavelength detection. The percent of control (POC) was calculated using the ratio of emission at […] to the emission at 620 nm. One hundred POC was determined using DMSO only controls (no test compounds present) and zero POC was determined using pre-quenched controls reactions. A 4-parameter logistic equation was fit to the POC values as a function of the test compound concentration and the IC50 value was determined as the point where the curve crossed 50 POC.
In general terms: TR-FRET usually uses a lanthanide donor and a delayed reading to cut background.

In another test the target is EGFR WT (Homo sapiens (Human), UniProt P00533). Briefly: ErbB enzyme assay (CisBio HTRF-KinEASE-TK), EGFR WT. It counts as biochemical. Conditions: ATP at Km (25 μM), 1 h incubation. The method in brief:
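Compounds, serially diluted three-fold, were incubated with enzyme for 1 h at ambient temperature. Detection reagents were then added for a further hour, and the 655/620 nm HTRF ratio was normalised to uninhibited and pre-quenched controls. IC50 was fitted with a four-parameter logistic model.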

The record followed here is patent publication US20250129078A1, “ERBB2 INHIBITORS” (Cogent Biosciences, Inc., priority 2023, published 2025).

Like-named read-outs stand apart in the source and are kept apart here.

Sequence of ErbB2 V777L (P04626 23-1255 V777L): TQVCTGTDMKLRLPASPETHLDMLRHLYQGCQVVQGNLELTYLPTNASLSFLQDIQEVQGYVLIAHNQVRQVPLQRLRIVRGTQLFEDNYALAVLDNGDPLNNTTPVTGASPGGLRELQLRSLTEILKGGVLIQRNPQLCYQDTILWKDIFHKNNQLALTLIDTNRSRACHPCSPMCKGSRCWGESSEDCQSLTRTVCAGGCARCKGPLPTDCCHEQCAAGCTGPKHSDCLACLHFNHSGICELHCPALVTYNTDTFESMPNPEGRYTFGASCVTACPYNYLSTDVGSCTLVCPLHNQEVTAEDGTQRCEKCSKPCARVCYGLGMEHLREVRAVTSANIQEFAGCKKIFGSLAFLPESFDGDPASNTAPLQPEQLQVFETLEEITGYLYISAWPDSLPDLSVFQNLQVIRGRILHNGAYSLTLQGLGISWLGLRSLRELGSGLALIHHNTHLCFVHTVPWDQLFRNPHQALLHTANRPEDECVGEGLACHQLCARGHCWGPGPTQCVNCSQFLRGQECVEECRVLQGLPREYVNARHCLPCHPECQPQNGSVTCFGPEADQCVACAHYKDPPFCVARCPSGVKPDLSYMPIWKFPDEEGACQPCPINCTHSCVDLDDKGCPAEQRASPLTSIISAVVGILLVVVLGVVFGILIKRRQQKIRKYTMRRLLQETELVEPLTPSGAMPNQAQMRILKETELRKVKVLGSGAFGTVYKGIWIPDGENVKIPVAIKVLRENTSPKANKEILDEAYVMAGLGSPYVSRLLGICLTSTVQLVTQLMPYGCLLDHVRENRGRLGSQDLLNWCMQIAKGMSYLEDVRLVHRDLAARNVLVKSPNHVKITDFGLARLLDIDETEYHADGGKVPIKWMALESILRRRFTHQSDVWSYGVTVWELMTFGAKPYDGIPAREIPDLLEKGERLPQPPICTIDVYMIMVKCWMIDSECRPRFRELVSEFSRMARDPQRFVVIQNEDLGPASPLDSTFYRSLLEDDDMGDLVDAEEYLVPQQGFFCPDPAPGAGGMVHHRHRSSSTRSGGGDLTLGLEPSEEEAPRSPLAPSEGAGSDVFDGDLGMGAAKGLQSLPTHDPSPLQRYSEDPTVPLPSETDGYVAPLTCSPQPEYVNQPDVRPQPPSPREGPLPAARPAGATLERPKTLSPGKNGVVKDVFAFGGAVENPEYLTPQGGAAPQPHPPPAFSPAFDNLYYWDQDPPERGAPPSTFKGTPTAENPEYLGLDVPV
Sequence of EGFR WT (P00533 25-1210): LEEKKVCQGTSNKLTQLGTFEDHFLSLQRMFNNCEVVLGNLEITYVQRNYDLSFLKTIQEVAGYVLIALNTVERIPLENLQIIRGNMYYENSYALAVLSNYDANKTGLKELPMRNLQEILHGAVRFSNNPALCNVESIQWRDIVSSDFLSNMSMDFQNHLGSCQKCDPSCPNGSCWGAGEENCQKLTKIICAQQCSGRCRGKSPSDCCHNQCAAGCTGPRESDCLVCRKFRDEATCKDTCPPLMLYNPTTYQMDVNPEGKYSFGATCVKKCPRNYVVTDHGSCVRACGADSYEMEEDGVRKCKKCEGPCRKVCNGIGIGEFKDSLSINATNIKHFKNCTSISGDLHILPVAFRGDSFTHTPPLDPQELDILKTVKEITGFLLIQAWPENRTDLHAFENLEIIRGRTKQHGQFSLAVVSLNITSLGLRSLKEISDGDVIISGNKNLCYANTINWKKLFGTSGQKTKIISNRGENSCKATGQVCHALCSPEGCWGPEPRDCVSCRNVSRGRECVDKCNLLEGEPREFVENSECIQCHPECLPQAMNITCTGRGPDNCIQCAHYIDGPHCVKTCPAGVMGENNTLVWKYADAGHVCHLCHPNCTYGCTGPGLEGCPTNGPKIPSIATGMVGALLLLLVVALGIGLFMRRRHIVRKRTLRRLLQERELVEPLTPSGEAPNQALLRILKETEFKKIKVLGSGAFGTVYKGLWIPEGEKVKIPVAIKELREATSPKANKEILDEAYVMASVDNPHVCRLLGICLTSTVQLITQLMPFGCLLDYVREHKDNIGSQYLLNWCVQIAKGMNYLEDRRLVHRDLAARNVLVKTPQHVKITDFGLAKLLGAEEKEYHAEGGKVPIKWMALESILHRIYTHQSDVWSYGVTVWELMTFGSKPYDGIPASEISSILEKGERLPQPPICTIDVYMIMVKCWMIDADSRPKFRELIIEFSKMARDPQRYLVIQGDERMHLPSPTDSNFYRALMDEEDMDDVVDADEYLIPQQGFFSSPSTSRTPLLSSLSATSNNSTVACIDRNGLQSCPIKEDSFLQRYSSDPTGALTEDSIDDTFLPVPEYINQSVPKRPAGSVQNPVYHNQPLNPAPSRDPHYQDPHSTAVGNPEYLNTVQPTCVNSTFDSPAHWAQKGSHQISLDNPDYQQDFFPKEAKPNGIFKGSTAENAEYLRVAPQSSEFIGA

On to `C=CC(=O)N1CCN(c2ccc3ncnc(Nc4ccc(Oc5ccc6c(c5)nnn6C)c(C)c4)c3n2)C[C@H]1C(C)C` [Compound 297, (R)-1-(2-isopropyl-4-(4-((3-methyl-4-((1-methyl-1H-benzo[d][1,2,3]triazol-5-yl)oxy)phenyl)amino)pyrido[3,2-d]pyrimidin-6-yl)piperazin-1-yl)prop-2-en-1-one], for which the IC50 on ErbB2 V777L lay in the range of 50 to 100 nM; against EGFR WT, 100 to 500 nM.

`C=C1CCN(C2CCN(c3ncc4ncnc(Nc5ccc(Oc6ccn7ncnc7c6)c(C)c5)c4n3)CC2)C1=O` [Compound 240, 1-(1-(8-((4-([1,2,4]triazolo[1,5-a]pyridin-7-yloxy)-3-methylphenyl)amino)pyrimido[5,4-d]pyrimidin-2-yl)piperidin-4-yl)-3-methylenepyrrolidin-2-one]: the IC50 against ErbB2 V777L is 100 to 500 nM; on EGFR WT, ≥ 1000 nM.

In the case of `C=CC(=O)N1CCN(c2ncc3ncnc(Nc4c(F)cc(Oc5ccc6c(c5)nnn6C)cc4F)c3n2)CC1` [Compound 20, 1-(4-(8-((2,6-difluoro-4-((1-methyl-1H-benzo[d][1,2,3]triazol-5-yl)oxy)phenyl)amino)pyrimido[5,4-d]pyrimidin-2-yl)piperazin-1-yl)prop-2-en-1-one], the IC50 against ErbB2 V777L was 500 to 1000 nM; against EGFR WT, 100 to 500 nM.

Consider `C=CC(=O)N1CCN(c2ncc3ncnc(Nc4cc(C)c(Oc5ccc6c(c5)nnn6C)c(Cl)c4)c3n2)C[C@H]1C` [Compound 151, (R)-1-(4-(8-((3-chloro-5-methyl-4-((1-methyl-1H-benzo[d][1,2,3]triazol-5-yl)oxy)phenyl)amino)pyrimido[5,4-d]pyrimidin-2-yl)-2-methylpiperazin-1-yl)prop-2-en-1-one], for which the IC50 at ErbB2 V777L and at EGFR WT was 100 to 500 nM each time.

For `C=CC(=O)N1C2CCC1CN(c1ncc3ncnc(Nc4ccc(Oc5cnc6c(c5)ncn6C)c(C)c4)c3n1)C2` [Compound 134, 1-(3-(8-((3-methyl-4-((3-methyl-3H-imidazo[4,5-b]pyridin-6-yl)oxy)phenyl)amino)pyrimido[5,4-d]pyrimidin-2-yl)-3,8-diazabicyclo[3.2.1]octan-8-yl)prop-2-en-1-one], the IC50 against ErbB2 V777L was in the range of 50 to 100 nM; against EGFR WT, 100 to 500 nM.

With `C=CC(=O)N1CCC[C@@H](N(C)c2ncc3ncnc(Nc4ccc(Oc5ccc6c(c5)nnn6C)c(C)c4)c3n2)C1` [Compound 223, (R)-1-(3-(methyl(8-((3-methyl-4-((1-methyl-1H-benzo[d][1,2,3]triazol-5-yl)oxy)phenyl)amino)pyrimido[5,4-d]pyrimidin-2-yl)amino)piperidin-1-yl)prop-2-en-1-one], the values for the IC50 against ErbB2 V777L and against EGFR WT were 100 to 500 nM and 500 to 1000 nM, respectively.

On to `C=CC(=O)N1CCN(c2ncc3ncnc(Nc4cc(C)c(Oc5ccc6c(c5)nnn6C)c(F)c4)c3n2)C[C@H]1C` [Compound 155, (R)-1-(4-(8-((3-fluoro-5-methyl-4-((1-methyl-1H-benzo[d][1,2,3]triazol-5-yl)oxy)phenyl)amino)pyrimido[5,4-d]pyrimidin-2-y1)-2-methylpiperazin-1-yl)prop-2-en-1-one], for which the values for the 50% inhibitory concentration (IC50) against ErbB2 V777L and against EGFR WT were 100 to 500 nM and 500 to 1000 nM, respectively.

On to `C=CC(=O)N1CCN(c2ccc3ncnc(Nc4ccc(Oc5ccc6c(c5)nnn6C)c(C)c4F)c3n2)C[C@@H]1C1CC1` [Compound 271, (S)-1-(2-cyclopropyl-4-(4-((2-fluoro-3-methyl-4-((1-methyl-1H-benzo[d][1,2,3]triazol-5-yl)oxy)phenyl)amino)pyrido[3,2-d]pyrimidin-6-yl)piperazin-1-yl)prop-2-en-1-one], for which the results for the IC50 at ErbB2 V777L and against EGFR WT were 500 to 1000 nM and ≥ 1000 nM, respectively.

On to `C=CC(=O)N1CCN(c2ccc3ncnc(Nc4ccc(Oc5ccc6c(c5)nnn6C)c(C)c4F)c3n2)C[C@@H]1C` [Compound 325, (S)-1-(4-(4-((2-fluoro-3-methyl-4-((1-methyl-1H-benzo[d][1,2,3]triazol-5-yl)oxy)phenyl)amino)pyrido[3,2-d]pyrimidin-6-yl)-2-methylpiperazin-1-yl)prop-2-en-1-one], for which the IC50 against ErbB2 V777L and at EGFR WT was 100 to 500 nM each time.

For `C=CC(=O)N1CCN(c2ncc3ncnc(Nc4ccc(Oc5ccc6c(c5)nnn6C(F)F)c(C)c4)c3n2)CC1` [Compound 63, 1-(4-(8-((4-((1-(difluoromethyl)-1H-benzo[d][1,2,3]triazol-5-yl)oxy)-3-methylphenyl)amino)pyrimido[5,4-d]pyrimidin-2-yl)piperazin-1-yl)prop-2-en-1-one], the IC50 against ErbB2 V777L is 50 to 100 nM; at EGFR WT it was < 50 nM.

In the case of `C=CC(=O)N1CCN(c2ccc3ncnc(Nc4ccc(Oc5cc6nnn(C)c6c(F)c5C)c(C)c4)c3n2)C[C@H]1C` [Compound 299, (R)-1-(4-(4-((4-((7-fluoro-1,6-dimethyl-1H-benzo[d][1,2,3]triazol-5-yl)oxy)-3-methylphenyl)amino)pyrido[3,2-d]pyrimidin-6-yl)-2-methylpiperazin-1-yl)prop-2-en-1-one], the IC50 at ErbB2 V777L was 100 to 500 nM; against EGFR WT, ≥ 1000 nM.

Regarding `C=CC(=O)N1CCN(c2ccc3ncnc(Nc4ccc(Oc5ccc6c(c5)nnn6C)c(C)c4)c3n2)C[C@H]1CC` [Compound 294, (R)-1-(2-ethyl-4-(4-((3-methyl-4-((1-methyl-1H-benzo[d][1,2,3]triazol-5-yl)oxy)phenyl)amino)pyrido[3,2-d]pyrimidin-6-yl)piperazin-1-yl)prop-2-en-1-one], the IC50 against ErbB2 V777L and on EGFR WT was 100 to 500 nM throughout.

As for `C=CC(=O)N1CCN(c2ncc3ncnc(Nc4ccc(Oc5ccc6c(nnn6C)c5F)c(C)c4)c3n2)CC1` [Compound 191, 1-(4-(8-((4-((4-fluoro-1-methyl-1H-benzo[d][1,2,3]triazol-5-yl)oxy)-3-methylphenyl)amino)pyrimido[5,4-d]pyrimidin-2-yl)piperazin-1-yl)prop-2-en-1-one], the IC50 on ErbB2 V777L and against EGFR WT was 50 to 100 nM throughout.

As for `C=CC(=O)N1CCN(c2ncc3ncnc(Nc4ccc(Oc5ccc6c(c5)nnn6C)c(C)c4)c3n2)C[C@H]1C` [Compound 1, (R)-1-(2-methyl-4-(8-((3-methyl-4-((1-methyl-1H-benzo[d][1,2,3]triazol-5-yl)oxy)phenyl)amino)pyrimido[5,4-d]pyrimidin-2-yl)piperazin-1-yl)prop-2-en-1-one], the IC50 fell in the range of 50 to 100 nM on ErbB2 V777L and 100 to 500 nM against EGFR WT.

In the case of `C=CC(=O)N1CCN(c2ccc3ncnc(Nc4cc(C)c(Oc5ccc6c(c5)nnn6C)cc4OC)c3n2)C[C@H]1C` [Compound 316, (R)-1-(4-(4-((2-methoxy-5-methyl-4-((1-methyl-1H-benzo[d][1,2,3]triazol-5-yl)oxy)phenyl)amino)pyrido[3,2-d]pyrimidin-6-y1)-2-methylpiperazin-1-yl)prop-2-en-1-one], the IC50 lay in the range of 50 to 100 nM at ErbB2 V777L (ErbB2 V777L enzyme, ATP at Km (110 μM), 1 h incubation) and 100 to 500 nM against EGFR WT.

Turning to `C=CC(=O)N1CCN(c2ncc3ncnc(Nc4cc(C)c(Oc5ccc6c(c5)ncn6C(F)F)cc4OC)c3n2)CC1` [Compound 37, 1-(4-(8-((4-((1-(difluoromethyl)-1H-benzo[d]imidazol-5-y1)oxy)-2-methoxy-5-methylphenyl)amino)pyrimido[5,4-d]pyrimidin-2-yl)piperazin-1-yl)prop-2-en-1-one 2,2,2-trifluoroacetate], the IC50 against ErbB2 V777L was in the range of 50 to 100 nM; at EGFR WT, 100 to 500 nM.

For `C=CC(=O)N1CCN(c2ccc3ncnc(Nc4cc(C)c(Oc5ccc6c(c5)nnn6C)cc4OC(F)(F)F)c3n2)C[C@H]1C` [Compound 317, (R)-1-(2-methyl-4-(4-((5-methyl-4-((1-methyl-1H-benzo[d][1,2,3]triazol-5-yl)oxy)-2-(trifluoromethoxy)phenyl)amino)py-rido[3,2-d]pyrimidin-6-yl)piperazin-1-yl)prop-2-en-1-one], the IC50 against ErbB2 V777L and against EGFR WT was 100 to 500 nM throughout.

With `C=CC(=O)N(C)C1CC2(C1)CN(c1ncc3ncnc(Nc4ccc(Oc5ccc6c(c5)nnn6C)c(C)c4)c3n1)C2` [Compound 232, N-methyl-N-(2-(8-((3-methyl-4-((1-methyl-H-benzo[d][1,2,3]triazol-5-yl)oxy)phenyl)amino)pyrimido[5,4-d]pyrimidin-2-yl)-2-azaspiro[3.3]heptan-6-yl)acrylamide], the IC50 was 500 to 1000 nM against ErbB2 V777L and ≥ 1000 nM at EGFR WT.

As for `C=CC(=O)N(C)CCN(C)c1ccc2ncnc(Nc3ccc(Oc4ccc5c(c4)nnn5C)c(C)c3)c2n1` [Compound 76, N-methyl-N-(2-(methyl(4-((3-methyl-4-((1-methyl-1H-benzo[d][1,2,3]triazol-5-yl)oxy)phenyl)amino)pyrido[3,2-d]pyrimidin-6-yl)amino)ethyl)acrylamide], the IC50 against ErbB2 V777L lay within 100 to 500 nM; against EGFR WT, 500 to 1000 nM.

`C=CC(=O)N1CCN(c2ccc3ncnc(Nc4cc(C)c(Oc5ccc6c(c5)ncn6C(F)F)cc4OC)c3n2)CC1` [Compound 370, 1-(4-(4-((4-((1-(difluoromethyl)-1H-benzo[d]imidazol-5-yl)oxy)-2-methoxy-5-methylphenyl)amino)pyrido[3,2-d]pyrimidin-6-yl)piperazin-1-yl)prop-2-en-1-one]: the IC50 at ErbB2 V777L was 50 to 100 nM; at EGFR WT, 100 to 500 nM.

Regarding `C=CC(=O)N1CCN(c2ccc3ncnc(Nc4ccc(Oc5cc(F)c6c(c5)nnn6C)c(C)c4F)c3n2)CC1` [Compound 91, 1-(4-(4-((2-fluoro-4-((7-fluoro-1-methyl-1H-benzo[d][1,2,3]triazol-5-yl)oxy)-3-methylphenyl)amino)pyrido[3,2-d]pyrimidin-6-yl)piperazin-1-yl)prop-2-en-1-one], the IC50 is 50 to 100 nM against ErbB2 V777L and < 50 nM against EGFR WT.

For orientation: IC50 means the concentration at which inhibition is half-maximal. Lower therefore signals higher potency.
